Measurements as given in ChEMBL document CHEMBL1130593, “The importance of GLU361 position in the reaction catalyzed by cholesterol oxidase” (Bioorg Med Chem Lett, 1998).

Legend:
[1] = tested on: Streptomyces; assay: Steady-state kinetic parameter on E361D mutant cholesterol oxidase
[2] = tested on: Streptomyces; assay: Steady-state kinetic parameter on wild-type cholesterol oxidase

CC(C)CCC[C@@H](C)[C@H]1CC[C@H]2[C@@H]3CC=C4C[C@@H](O)CC[C@]4(C)[C@H]3CC[C@]12C
Km [1]: 0.6 µM
k cat [1]: 4.2 s⁻¹
Km [2]: 3 µM
k cat [2]: 44 s⁻¹

CC(C)CCC[C@@H](C)[C@H]1CC[C@H]2[C@@H]3CC=C4CC(=O)CC[C@]4(C)[C@H]3CC[C@]12C
Km [1]: 1.4 µM
k cat [1]: 0.2 s⁻¹
Km [2]: 6.2 µM
k cat [2]: 64 s⁻¹
